Assay: xn = mol fraction of the nth substance listed
Conditions: 298 K, 101 kPa

In the case of `CC(=O)[O-].CCC[N+]1(C)CCN(C)CC1` + CC#N, the electrical conductivity (x2 = 0.806) is reported as 1.82 S/m, the electrical conductivity (x2 = 0.819) is reported as 1.89 S/m and the electrical conductivity (x2 = 0.832) is reported as 1.95 S/m. For the same compound, the electrical conductivity (x2 = 0.843) was 1.98 S/m, the electrical conductivity (x2 = 0.852) was 1.98 S/m and the electrical conductivity (x2 = 0.859) was 2.04 S/m. It also gave an electrical conductivity (x2 = 0.874) of 2.01 S/m, an electrical conductivity (x2 = 0.884) of 2.04 S/m and an electrical conductivity (x2 = 0.895) of 2.06 S/m. For the same compound, the electrical conductivity (x2 = 0.902) was 2.06 S/m, the electrical conductivity (x2 = 0.919) was 2.04 S/m and the electrical conductivity (x2 = 0.931) was 2.01 S/m. It also gave an electrical conductivity (x2 = 0.937) of 1.94 S/m and an electrical conductivity (x2 = 0.95) of 1.85 S/m.
`CC(O)C(=O)[O-].CCC[N+]1(C)CCN(C)CC1` + CC#N gave an electrical conductivity (x2 = 0.808) of 1.52 S/m, an electrical conductivity (x2 = 0.835) of 1.72 S/m and an electrical conductivity (x2 = 0.856) of 1.83 S/m. It also gave an electrical conductivity (x2 = 0.872) of 1.91 S/m, an electrical conductivity (x2 = 0.89) of 1.99 S/m and an electrical conductivity (x2 = 0.898) of 1.99 S/m. For the same compound, the electrical conductivity (x2 = 0.907) was 2.04 S/m, the electrical conductivity (x2 = 0.918) was 2.05 S/m and the electrical conductivity (x2 = 0.927) was 2.05 S/m. It also gave an electrical conductivity (x2 = 0.939) of 2.01 S/m and an electrical conductivity (x2 = 0.945) of 1.96 S/m.

Source: a compilation of properties of binary mixtures (doi:10.1016/j.molliq.2018.05.059)
